From PMC8847695 (Frontiers in Chemistry, 2022)
pKd: −log10 of the molar value.

Columns and labels:
AAK1 = AAK1 (Homo sapiens, UniProt Q2M2I8); assay: ITC validation, AAK1; format: binding; conditions: for pKd / KD: ITC; for LE: LE=1/N⋅1.4⋅−log(KD); for LE / LELP: AAK1; for LELP: LELP= logP/LE
Procedure: (§1) The protein was buffer exchanged into 50 mM HEPES, 100 mM NaCl, 2 mM MgCl2, and 1 mM TCEP at pH 7.4. The protein was concentrated to 50–100 µM, and DMSO was added to a final concentration of 5% (^V/V). The fragments were dissolved in DMSO to yield a 100 mM stock solution, which was further diluted with buffer to yield a 5 mM solution also containing 5% (^V/V) DMSO. A MicroCal iTC200 (Malvern) instrument was used with the measuring cell set to 25°C, while the cooling jacket was set to 15°C. After a 120 s initial delay following temperature equilibration, a first injection with 0.5 µl over 2 s was done. […] The measurement was conducted using a needle stirring speed of 1,000 rpm and a reference heat rate of 10 μcal/s. Experiments were aborted, when the measuring cell was unable to reach a heat rate greater than 9 μcal/s during equilibration. Affinities were averaged from duplicates.

[1] = GSH stability assay (HPLC); format: physicochemical; conditions: t1/2 > 20 h defined as sufficiently stable
Procedure: A 500 µM fragment solution in PBS buffer pH 7.4, 10% acetonitrile and 200 µM indoprofen as an internal standard, was added to 10 mM GSH solution in a 1:2 ratio. The reaction temperature was 40°C. […] The reaction of fragments with GSH was determined by measuring the decreasing area under the curve (AUC) of the compound relative to the internal standard indoprofen. The gradient was chosen depending on the polarity of fragments to be either one of the following: […]

IDO1 = biological target: T1, IDO1 (Homo sapiens, UniProt P14902); assay: ITC validation, IDO1; format: binding
T1 construct: His-tag of pET15b with TEV site (thrombin site replaced) (cleaved yes); made in house; host or cells: E. coli Rosetta 2 (DE3) pLysS
Procedure: The protein was buffer exchanged into 50 mM HEPES, 100 mM NaCl, 2 mM MgCl2, and 1 mM TCEP at pH 7.4. The protein was concentrated to 50–100 µM, and DMSO was added to a final concentration of 5% (^V/V). The fragments were dissolved in DMSO to yield a 100 mM stock solution, which was further diluted with buffer to yield a 5 mM solution also containing 5% (^V/V) DMSO. A MicroCal iTC200 (Malvern) instrument was used with the measuring cell set to 25°C, while the cooling jacket was set to 15°C. After a 120 s initial delay following temperature equilibration, a first injection with 0.5 µl over 2 s was done. Nineteen injections with 2 µl over 4 s were performed every 180 s ([Ruhmann et al., 2015]). The measurement was conducted using a needle stirring speed of 1,000 rpm and a reference heat rate of 10 μcal/s. Experiments were aborted, when the measuring cell was unable to reach a heat rate greater than 9 μcal/s during equilibration. Affinities were averaged from duplicates.

CAMK1G = biological target: T2, CAMK1G (Homo sapiens, UniProt Q96NX5); assay: ITC validation, CAMK1G; format: binding; conditions: LE=1/N⋅1.4⋅−log(KD), CAMK1G
T2 construct: made in house; host or cells: E. coli BL21 (DE3) pLysS
Procedure: as §1

DOT1L = biological target: T3, DOT1L (Homo sapiens, UniProt Q8TEK3); assay: ITC validation, DOT1L; format: binding; conditions: 25°C, detection level >1 mM
T3 construct: made in house; host or cells: E. coli BL21 (DE3) pLysS
Procedure: as §1

CAMK1G (1-320) = biological target: T4, CAMK1G (1-320) (Homo sapiens, UniProt Q96NX5); assay: STD-NMR fragment screening, CAMK1G; format: binding; conditions: for CAMK1G (STD-NMR hit flag): 1 = hit, 0 = no hit
T4 construct: made in house; host or cells: E. coli BL21 (DE3) pLysS
Method in brief: (§2)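 Saturation-transfer difference NMR was run at 25°C and 700 MHz with 20 µM protein, two fragments at 1 mM each, and 10% DMSO-d6. On-resonance saturation was at 0.5–0.6 ppm and off-resonance at 40 ppm, with a 3 s Gaussian-pulse train. A hit required a difference-spectrum peak at least three times the local noise.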

AAK1 (121-471) = AAK1 (121-471) (Homo sapiens, UniProt Q2M2I8); assay: STD-NMR fragment screening, AAK1; format: binding; conditions: 1 = hit, 0 = no hit
Method in brief: as §2

DOT1L (1-416) = biological target: T5, DOT1L (1-416) (Homo sapiens, UniProt Q8TEK3); assay: STD-NMR fragment screening, DOT1L; format: binding; conditions: 1 = hit, 0 = no hit
T5 construct: made in house; host or cells: E. coli BL21 (DE3) pLysS
Method in brief: as §2

IDO1 (1-435) = biological target: T6, IDO1 (1-435) (Homo sapiens, UniProt P14902); assay: STD-NMR fragment screening, IDO1; format: binding; conditions: 1 = hit, 0 = no hit
T6 construct: His-tag of pET15b with TEV site (thrombin site replaced) (cleaved yes); made in house; host or cells: E. coli Rosetta 2 (DE3) pLysS
Method in brief: as §2

[2] = 25°C, 5% DMSO, pH 7.4, duplicates

T5 sequence (Q8TEK3 1-416): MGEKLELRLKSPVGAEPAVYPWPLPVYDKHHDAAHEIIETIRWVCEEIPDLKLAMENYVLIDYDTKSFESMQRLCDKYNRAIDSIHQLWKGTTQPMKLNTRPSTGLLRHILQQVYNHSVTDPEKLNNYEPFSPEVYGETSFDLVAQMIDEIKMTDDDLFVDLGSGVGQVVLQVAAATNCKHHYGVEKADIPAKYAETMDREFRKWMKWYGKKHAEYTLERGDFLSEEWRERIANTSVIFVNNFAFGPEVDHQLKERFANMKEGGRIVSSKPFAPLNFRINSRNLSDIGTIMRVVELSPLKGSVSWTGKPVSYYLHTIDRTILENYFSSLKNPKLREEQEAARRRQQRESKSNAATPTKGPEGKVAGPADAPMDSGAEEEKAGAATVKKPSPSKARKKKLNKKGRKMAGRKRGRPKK
T4 sequence (Q96NX5 1-320): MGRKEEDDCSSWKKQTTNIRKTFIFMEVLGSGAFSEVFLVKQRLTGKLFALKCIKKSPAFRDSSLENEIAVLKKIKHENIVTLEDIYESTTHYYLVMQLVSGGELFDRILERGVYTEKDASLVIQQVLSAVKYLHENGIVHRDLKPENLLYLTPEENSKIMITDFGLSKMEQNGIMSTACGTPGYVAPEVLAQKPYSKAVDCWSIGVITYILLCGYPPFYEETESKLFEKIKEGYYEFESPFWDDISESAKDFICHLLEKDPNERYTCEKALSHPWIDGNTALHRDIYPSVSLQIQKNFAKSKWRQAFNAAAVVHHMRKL
AAK1, sequence (Q2M2I8 46-315 limits assumed): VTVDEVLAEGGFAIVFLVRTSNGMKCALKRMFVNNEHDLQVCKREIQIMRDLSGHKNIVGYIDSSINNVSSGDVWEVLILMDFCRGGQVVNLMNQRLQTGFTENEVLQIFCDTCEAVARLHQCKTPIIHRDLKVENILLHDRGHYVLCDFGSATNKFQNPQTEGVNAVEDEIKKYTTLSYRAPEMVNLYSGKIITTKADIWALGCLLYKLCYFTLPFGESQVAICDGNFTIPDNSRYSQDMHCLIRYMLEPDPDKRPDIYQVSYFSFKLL
AAK1 (121-471), sequence (Q2M2I8 46-315 limits assumed): as above
T1 sequence (P14902 whole entry): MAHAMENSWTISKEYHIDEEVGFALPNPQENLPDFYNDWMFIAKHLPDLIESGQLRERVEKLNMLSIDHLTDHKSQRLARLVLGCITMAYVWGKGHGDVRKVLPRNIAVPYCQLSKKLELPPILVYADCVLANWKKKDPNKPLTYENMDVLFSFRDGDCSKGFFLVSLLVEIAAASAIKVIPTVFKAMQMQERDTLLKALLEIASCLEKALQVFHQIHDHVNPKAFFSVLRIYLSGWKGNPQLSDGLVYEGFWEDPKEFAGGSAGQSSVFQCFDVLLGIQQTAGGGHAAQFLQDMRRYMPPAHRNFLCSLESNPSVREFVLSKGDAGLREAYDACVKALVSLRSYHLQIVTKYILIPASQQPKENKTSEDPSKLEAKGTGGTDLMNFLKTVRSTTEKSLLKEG
T6 sequence (P14902 whole entry, the tested form may be a part): as the sequence (P14902 whole entry) above
T3 sequence (Q8TEK3 1-416): as the sequence (Q8TEK3 1-416) above
T2 sequence (Q96NX5 1-320): as the sequence (Q96NX5 1-320) above

Row | AAK1 (STD-NMR hit flag) (AAK1 (121-471)) | DOT1L (STD-NMR hit flag) (DOT1L (1-416)) | CAMK1G (STD-NMR hit flag) (CAMK1G (1-320)) | IDO1 (STD-NMR hit flag) (IDO1 (1-435)) | SMILES | further results
1 | 1 | 0 | 1 | 0 | Nc1ncc(C(F)(F)F)cc1Cl [Fragment B02291219] | –
2 | 0 | 0 | 0 | 0 | O=C(O)c1ncc(Cl)cc1Cl [Fragment B02297418] | –
3 | 1 | 0 | 0 | 0 | Cn1c(Cl)cc(=O)n(C)c1=O [Fragment B02290465] | –
4 | 0 | 0 | 0 | 0 | FC(F)(F)c1cnc(Cl)nc1 [Fragment B02294482] | –
5 | 0 | 0 | 0 | 0 | Cc1nn(CCN)cc1Cl [Fragment B02291152] | –
6 | 0 | 0 | 0 | 0 | Clc1ccncc1 [Fragment B02291269] | –
7 | 0 | 0 | 0 | 0 | O=C(O)C(O)c1cccc(Cl)c1 (stereo not shown) [Fragment B02297417] | –
8 | 1 | 0 | 1 | 1 | COc1cc(Cl)cnc1OC [Fragment B02297394] | –
9 | 1 | 0 | 0 | 1 | Brc1cnn(-c2nnn[nH]2)c1 [Fragment B02290113] | –
10 | 0 | 0 | 0 | 0 | O=C1Nc2c(Cl)cccc2C1=O [Fragment B02290467] | –
11 | 0 | 0 | 0 | 0 | O=C(O)c1ccc(Br)cn1 [Fragment B02291245] | –
12 | 1 | 0 | 0 | 0 | Nc1c(Cl)ccc2nonc12 [Fragment B02291217] | –
13 | 1 | 0 | 0 | 0 | Nc1c(Cl)ccc(O)c1Cl [Fragment B02290471] | –
14 | 1 | 0 | 1 | 1 | Clc1cnc2ccccn12 [Fragment B02294486] | –
15 | 0 | 0 | 0 | 0 | COc1ncc(Br)cc1C(=O)O [Fragment B02297396] | –
16 | 1 | 1 | 1 | 0 | Cc1c(Cl)cnc(N)c1Cl [Fragment B02297405] | –
17 | 0 | 0 | 0 | 0 | Clc1nsnc1N1CCOCC1 [Fragment B02297414] | –
18 | 0 | 0 | 0 | 0 | Nc1ncc(F)cc1I [Fragment B02291238] | –
19 | 0 | 0 | 0 | 1 | O=c1ncc(Cl)c[nH]1 [Fragment B02297425] | –
20 | 0 | 0 | 0 | 0 | Oc1coc(O)c1Br [Fragment B02291100] | –
21 | 1 | 1 | 0 | 0 | COC(=O)c1cc(N)c(Cl)s1 [Fragment B02297407] | –
22 | 1 | 1 | 0 | 0 | O=C(O)c1cncc(Br)c1 [Fragment B02291261] | –
23 | 0 | 0 | 0 | 0 | Clc1cccc2nnnn12 [Fragment B02291229] | –
24 | 0 | 0 | 0 | 0 | CS(=O)(=O)c1ccc(Cl)c(S(C)(=O)=O)c1 [Fragment B02291213] | –

Second part, the molecule before the results:

Row | SMILES | AAK1 (STD-NMR hit flag) (AAK1 (121-471)) | DOT1L (STD-NMR hit flag) (DOT1L (1-416)) | CAMK1G (STD-NMR hit flag) (CAMK1G (1-320)) | IDO1 (STD-NMR hit flag) (IDO1 (1-435)) | further results
25 | Clc1nccc2cc[nH]c12 [Fragment A2] | – | – | – | – | pKd (AAK1; [2]): 4.22
26 | Oc1nc2nc(Cl)ccc2[nH]1 [Fragment 0474] | – | – | – | – | pKd (AAK1; [2]): 3.74; LE (AAK1): 0.48; LELP (AAK1): 1.90; stability with GSH (in words) [1]: sufficiently stable
27 | Clc1ncnc2ccsc12 [Fragment A5] | – | – | – | – | KD (AAK1; [2]): completely abolished the affinity
28 | Cn1c(=O)c2[nH]c(Cl)nc2n(C)c1=O [Fragment 1216] | – | – | – | – | pKd (IDO1; ITC, 25°C, 5% DMSO, pH 7.4, duplicates): 3.41; LE (IDO1; LE=1/N⋅1.4⋅−log(KD), IDO1): 0.34; LELP (IDO1; LELP= logP/LE, IDO1): −1.92; stability with GSH (in words) [1]: sufficiently stable
29 | c1cc2cc[nH]c2cn1 [Fragment A3] | – | – | – | – | KD (AAK1; [2]): completely abolished the affinity; pKd (AAK1; SAR analogs of 9595): < 3.00
30 | Nc1ccc2[nH]cnc2c1Br [Fragment 7409] | – | – | – | – | pKd (AAK1; [2]): 5.22; LE (AAK1): 0.67; LELP (AAK1): 2.86; LE (CAMK1G): over 0.4; stability with GSH (in words) [1]: sufficiently stable
31 | Clc1ccnc2cc[nH]c12 [Fragment A1] | – | – | – | – | pKd (AAK1; [2]): 4.30
32 | Clc1cccc2cc[nH]c12 [Fragment A6] | – | – | – | – | pKd (AAK1; [2]): 3.77
33 | Nc1c(Cl)ccc2nonc12 [Fragment 1217] | – | – | – | – | stability with GSH (in words) [1]: sufficiently stable
34 | Nc1c(Cl)ccc(O)c1Cl [Fragment 0471] | – | – | – | – | pKd (AAK1; [2]): 4.05; LE (AAK1): 0.57; LELP (AAK1): 4.03
35 | Brc1cnc2cnccn12 [Fragment 0120] | – | – | – | – | ITC validation (KD) (DOT1L): None of these could be validated with ITC; STD-NMR hit (CAMK1G (1-320); 1 mM fragment, 20 µM protein, hit if peak in difference spectrum three times higher than local noise): fragment hits
36 | Brc1cnc2cnccn12 [Fragment B02289617] | 0 | 0 | 1 | 0 | –
37 | Oc1ccc(Cl)cc1 [Fragment B02294485] | 0 | 0 | 0 | 0 | –
38 | O=[N+]([O-])c1cnc(Br)[nH]1 [Fragment B02289601] | 1 | 0 | 0 | 1 | –
39 | Clc1ncnc2cc[nH]c12 [Fragment B02289595] | 1 | 0 | 1 | 0 | –
40 | Clc1ncnc2ccoc12 [Fragment A4] | – | – | – | – | pKd (AAK1; [2]): 3.52
41 | Clc1ccc(CN2CCNCC2)cn1 [Fragment B02290121] | 0 | 0 | 0 | 0 | –
